Test results as given in US11408022B2, “Preparation method of anti-oxidation polypeptide” (Fu Zhou University, priority 2018, dated 2022).
Where no end group is shown, it is not given here.

What was measured:
Format in all cases: biochemical
[1] = ABTS radical elimination activity; details: 1 mg/mL
Protocol: 7 mM ABTS mother solution and 2.45 mM potassium peroxydisulfate solution were respectively prepared and stored for later use. The two solutions were mixed in a ratio of 1:1 before use. The mixed solution was placed still at room temperature for 16 h, and then diluted with phosphate buffer solution (5 mM, 7.4 pH) to obtain an ABTS radical solution with absorbance of 0.70±0.02 at the wavelength of 734 nm. The ABTS radical solution was mixed with samples of different concentrations and equal volume; after 10 min reaction at room temperature, the absorbance of the mixtures was determined at the wavelength of 734 nm; and finally, the mixtures were zero-set using the phosphate buffer solution (5 mM, 7.4 pH). In the control group, distilled water was used to replace samples. The elimination rate of ABTS radicals of the sample was calculated using the following equation: […]
In the equation: • Acontrol—absorbance of the control group • Asample—absorbance of the sample

[2] = Oxygen radical absorption capacity
[3] = DPPH radical elimination activity; details: 1 mg/mL
Protocol: 1 mL of the sample of different concentrations was respectively well mixed with 1 mL of DPPH solution ([…], prepared using 95% ethanol). The mixed solutions were kept still in shadow at room temperature for 30 min, and then the absorbance was determined at the wavelength of 517 nm. 1 mL of 95% ethanol solution in replacement of the DDPPH solution was used to prepare the sample reference group; and the control group included 1 mL of DPPH solution and 1 mL of 95% ethanol solution. The elimination rate of DPPH radicals of the sample was calculated using the following equation: […]
In the equation, • Ai—absorbance of the sample group • Aj—absorbance of the sample reference group • A0—absorbance of the control group

Substance: GAAVAL [anti-oxidation polypeptide, hexapeptide isolated from alkali protease hydrolysate of black shark skins]
- Elimination rate of ABTS radicals [1]: 64.12±0.20%
- Oxygen radical absorption capacity [2]: 527.53±65.15 μmol Trolox/g peptide
- Elimination rate of DPPH radicals [3]: 67.00±0.24%
